Results taken from patent publication US5955501A, “Protein kinase C modulators O” (priority 1995, dated 1999).
pEC50, pIC50: −log10 of the molar value. Read-outs that look alike come from different tables or passages of the source.

Columns and labels:
[1] = system: diacylglycerol/phorboid-type binding sites in mouse skin and in purified preparations of protein kinase C isotypes; settings: Dunn and Blumberg; Ryves et al. 1991; cited from earlier work
diacylglycerol site = assay: Diacylglycerol site binding activity (test not described at the place)
[2] = Anti-viral properties (test not described at the place)
[3] = system: T-24 human bladder carcinoma cells; assay: Anti-cancer activity: methylene blue cell growth assay; assay type: cell-based; settings: 5-6 days incubation, methylene blue staining, read-out: IC50 (drug concentration which leads to 50% of cells per well compared to control cultures)
Experimental: T-24 human bladder carcinoma cells were cultured in Eagle's minimal essential medium supplemented with 5% fetal bovine serum. Cells (1,000) were seeded into 96-well microtiter plates and incubated overnight. Serial dilutions of 20-deoxy-20(2'-hydroxyethylthio)phorbol 12-myristate 13-acetate (dissolved in DMSO and then diluted with culture medium) were added to the wells on day 1. The plates were incubated for 5-6 days to allow the control cultures to undergo at least 3 cell divisions. After the incubation period, the cells were fixed with glutaraldehyde, washed with water and stained with 0.05% methylene blue. After washing the dye was eluted with 3% HCl. The optical density per well was measured at 665 nm and compared using the formula:(OD Test-OD Start)/(OD Control-OD Start)×100.

[4] = system: HL-60 promyelocytic leukemia cells; assay: Anti-leukemic activity: MTT cell growth assay; assay type: cell-based; settings: Homo sapiens, HL-60, 192 h, 8 days incubation, read-out: IC50 (drug concentration which leads to 50% of cells per well compared to control cultures)
Experimental: HL-60 promyelocytic leukemia cells were cultured in RPMI 1640 medium supplemented with 10% fetal bovine serum. Cells (7,500) were seeded into 96-well microtiter plates and incubated overnight. Serial dilutions of 20-deoxy-20-(2'-hydroxyethylthio)phorbol 12-myristate 13-acetate (dissolved in DMSo and then diluted with culture medium) were added to the wells on day 1. The plates were incubated for 8 days to allow the control cultures to undergo at least 3 cell divisions. The cell growth was monitored by using the calorimetric MTT (tetrazolium) assay [Mosmann, T., J. Immunol. Meth. 65: 55-63 (1983)]. After the incubation period, the cells were washed with phosphate-buffered saline in the microtiter plate. DMSO was then added to each well and the dish was put on a shaker for 20 min. The optical density was measured at 540 nm and compared using the formula:(OD Test OD Start)/(OD Control - OD Start) x 100.

HIV = assay: Anti-HIV activity in HIV-infected human peripheral blood lymphocytes (supernatant viral RNA and p24 core protein); assay type: cell-based; settings: for pEC50 / inhibition at 10 µM: Human immunodeficiency virus 1, Lymphocyte; for pEC50: from dose-response curves or by estimation from one or more experimental drug concentrations, read-out: anti-HIV ED50 for RNA; for inhibition at 10 µM: read-out: percent inhibition of viral RNA production
Experimental: Human peripheral blood lymphocytes were isolated from the buffy coat fractions of blood donations. The lymphocytes were then stimulated with 5 μg/ml of phytohemagglutinin for 48 hours. Prior to infection with HIV, the lymphocytes were washed and resuspended in mitogen-free medium. On day 0 the cells were infected with HIV and were cultured for four days in the presence or absence of graded concentrations of 20-deoxy-20-chlorophorbol 12,13-bis[(2',4'-difluorophenyl)acetate]. On days 3 and 4 the supernatant levels of total viral RNA and viral core protein p24 were determined at each drug concentration and dose-response curves were used to determine the concentration of drug giving 50% inhibition of production of viral RNA and of p24 core protein. At four days these ED50 values were less than 100 pM for both RNA and p24.
(§1) In a manner similar to Example 111, the anti-HIV ED50 values for RNA [drug concentration is in brackets] for the following diterpenoid compounds were determined from dose-response curves or by estimation from one or more experimental drug concentrations.
as §1, with “indolactam-type” for “diterpenoid”, “concentrations, data giving percent inhibition of viral RNA production at selected concentrations appear in parentheses:” for “concentrations.”
as §1, with “diacylglycero-type” for “diterpenoid”, “concentrations; data giving percent inhibition of viral RNA production at selected concentrations appear in parentheses: […]” for “concentrations.”

[5] = system: phorbol 12-myristate 13-acetate induced ear inflammation/erythema; assay: Mouse ear inflammation test: inhibition of phorbol 12-myristate 13-acetate induced inflammation/erythema; assay type: in vivo, mice
Experimental: Method: A stock solution of 300 pmoles of the standard inflammatory compound phorbol 12-myristate 13-acetate per 5 μL acetone was prepared. This solution was used to prepare four-fold dilutions of 20-deoxy-20-(2'-hydroxyethylthio)phorbol 12-myristate 13-acetate, prepared as in Example 3, covering concentrations of the latter ranging from 4 to 64,000 pmoles per 5 μL.

[6] = system: Human RPMI-7272 melanoma cells; assay: Anti-melanoma activity: inhibition of cell doublings; assay type: cell-based; settings: 72 h of exposure, read-out: ID50 (concentration of drug required to inhibit cell doublings by 50%)
Experimental: Human RPMI-7272 melanoma cells were grown in the standard culture medium under normal incubation conditions. On day 1 the cells were cultured in the absence (control) or presence of graded concentrations (3-100 μg/ml) of 20-deoxy-20-(2'-hydroxyethylthio)phorbol 12-myristate 13-acetate in separate tubes. On day 4 after 72 h of exposure the number of cells in each tube was measured and the number of cell doublings determined. The drug treated tubes were compared to the control tube.

CC1=C[C@H]2[C@@]3(O)[C@H](C)C[C@]4(OC(=O)C(C)C)[C@H]([C@@H]3C=C(CO)C[C@]2(O)C1=O)C4(C)C [12-deoxyphorbol 13-isobutyrate]
selectivity factor in dissociation constant among the different binding sites [1]: 10-1000

CCCCCCCCCCCCCC(=O)O[C@@H]1[C@@H](C)[C@@]2(O)[C@@H](C=C(CCC3=C[C@H]4[C@@H]5C(C)(C)[C@]5(OC(C)=O)[C@H](OC(=O)CCCCCCCCCCCCC)[C@@H](C)[C@]4(O)[C@@H]4C=C(C)C(=O)[C@@]4(O)C3)C[C@]3(O)C(=O)C(C)=C[C@@H]23)[C@@H]2C(C)(C)[C@]12OC(C)=O [20-Deoxy-20-[20'-deoxyphorbol-20'-yl(12'-myristate 13'-acetate)]phorbol 12-Myristate 13-Acetate]
diacylglycerol site binding activity (diacylglycerol site): still exhibits diacylglycerol site binding activity
anti-viral properties [2]: anti-viral properties

CCCCCCCCCCCCCC(=O)O[C@@H]1[C@@H](C)[C@@]2(O)[C@@H](C=C(COC(=O)NC)C[C@]3(O)C(=O)C(C)=C[C@@H]23)[C@@H]2C(C)(C)[C@]12OC(C)=O [phorbol 12-myristate 13-acetate 20-methylcarbamate]
pIC50 [3]: 5.20
pIC50 [4]: 5.59

thymeleatoxin
selectivity factor in dissociation constant among the different binding sites [1]: 10-1000

CCCC(=O)O[C@@H]1[C@@H](C)[C@@]2(O)[C@@H](C=C(CO)C[C@]3(O)C(=O)C(C)=C[C@@H]23)[C@@H]2C(C)(C)[C@]12OC(=O)CCC [phorbol 12,13-dibutyrate]
selectivity factor in dissociation constant among the different binding sites [1]: 10-1000

CCCSCC1=C[C@H]2[C@@H]3C(C)(C)[C@]3(OC(=O)Cc3ccc(F)cc3F)[C@H](OC(=O)Cc3ccc(F)cc3F)[C@@H](C)[C@]2(O)[C@@H]2C=C(C)C(=O)[C@@]2(O)C1 [20-deoxy-20-propylthiophorbol 12,13-bis[(2',4'-difluorophenyl)acetate]]
pEC50 (HIV): 8.00

CC(C)[C@H]1C(=O)N[C@H](CSCCO)Cc2c[nH]c3cccc(c23)N1C [14-deoxy-14-(2'-hydroxyethylthio)indolactam V]
pEC50 (HIV): 6.00

CC1=C[C@H]2[C@@]3(O)[C@H](C)C[C@]4(OC(=O)Cc5ccccc5)[C@H]([C@@H]3C=C(CO)C[C@]2(O)C1=O)C4(C)C [12-deoxyphorbol 13-phenylacetate]
selectivity factor in dissociation constant among the different binding sites [1]: 10-1000

CCCCCCCCCCCCCC(=O)O[C@@H]1[C@@H](C)[C@@]2(O)[C@@H](C=C(CSCCO)C[C@]3(O)C(=O)C(C)=C[C@@H]23)[C@@H]2C(C)(C)[C@]12OC(C)=O [20-deoxy-20-(2'-hydroxyethylthio)phorbol 12-myristate 13-acetate]
pIC50 [3]: 4.89
inhibition of phorbol 12-myristate 13-acetate induced ear inflammation/erythema ([5]; applied with 300 pmoles phorbol 12-myristate 13-acetate per 5 μL acetone to inside of right ear, observed 1 to 48 hours): Inhibition of the phorbol 12-myristate 13-acetate induced inflammation was observed at the medium and higher concentrations
pIC50 [6]: 4.38
pIC50 [4]: 5.27

C=C1C[C@]2(O)C(=O)C(C)=C[C@H]2[C@@]2(O)[C@H](C)[C@@H](OC(=O)CCCCCCCCCCCCC)[C@]3(OC(C)=O)[C@H]([C@@H]2C1CO)C3(C)C (stereo partly drawn) [12-β-myristoyloxy-13-acetoxy-4,9-dihydroxy-7-hydroxymethyl-1,6(20)-tigliadien-3-one]
pIC50 [3]: 5.26
anti-inflammatory activity ([5]; general statement in the description, test not named there): good anti-inflammatory activity
pIC50 [4]: 5.28

9-deshydroxymethyl-9-ethoxycarbonylindolactam V
percent inhibition of viral RNA production (HIV; at 10 μM): 47%

CC1=C[C@H]2[C@@]3(O)[C@H](C)[C@@H](OC(=O)Cc4ccc(F)cc4F)[C@]4(OC(=O)Cc5ccc(F)cc5F)[C@H]([C@@H]3C=C(C#N)C[C@]2(O)C1=O)C4(C)C [6-deshydroxymethyl-6-cyanophorbol 12,13-bis[(2',4'-difluorophenyl)acetate]]
pEC50 (HIV): > 7.00

9-Deshydroxymethyl-9-[N-(2',3'-dihydroxy)propyl]carboxamidoindolactam V
percent inhibition of viral RNA production (HIV; at 10 μM): 22%

CNC(=O)OC[C@@H]1Cc2c[nH]c3cccc(c23)N(C)[C@@H](C(C)C)C(=O)N1 (relative stereo) [rac-14-O-(N-methyl)carbamoylindolactam V]
inhibition at 10 µM (HIV): 52%

CC1=C[C@H]2[C@@]3(O)[C@H](C)[C@@H](OC(=O)Cc4ccc(F)cc4F)[C@]4(OC(=O)Cc5ccc(F)cc5F)[C@H]([C@@H]3C=C(CN=[N+]=[N-])C[C@]2(O)C1=O)C4(C)C [20-deoxy-20-azidophorbol 12,13-bis[(2',4'-difluorophenyl)acetate]]
pEC50 (HIV): 7.19

CCCCCCCCCCCCCC(=O)O[C@@H]1[C@@H](C)[C@@]2(O)[C@@H](C=C(COC(=O)Nc3ccc(F)c([N+](=O)[O-])c3)C[C@]3(O)C(=O)C(C)=C[C@@H]23)[C@@H]2C(C)(C)[C@]12OC(C)=O [phorbol 12-myristate 13-acetate 20-(4'-fluoro-3'-nitrophenyl)carbamate]
pEC50 (HIV): 5.40

CCCCCCCCCCCCCC(=O)O[C@@H]1[C@@H](C)[C@@]2(O)[C@@H](C=C(CC#N)C[C@]3(O)C(=O)C(C)=C[C@@H]23)[C@@H]2C(C)(C)[C@]12OC(C)=O [20-deoxy-20-cyanophorbol 12-myristate 13-acetate]
pIC50 [3]: 5.70
pEC50 (HIV): 5.82

CCOC(=O)[C@@H]1Cc2cn(CO)c3cccc(c23)N(C)[C@@H](C(C)C)C(=O)N1 [1-N-hydroxymethyl-9-deshydroxymethyl-9-ethoxycarbonylindolactam V]
inhibition at 10 µM (HIV; at 10 μM): 31%

CC1=C[C@H]2[C@@]3(O)[C@H](C)[C@@H](OC(=O)Cc4ccc(F)cc4F)[C@]4(OC(=O)Cc5ccc(F)cc5F)[C@H]([C@@H]3C=C(CSCCS)C[C@]2(O)C1=O)C4(C)C [20-deoxy-20-(2'-mercaptoethylthio)phorbol 12,13-bis[(2',4'-difluorophenyl)acetate]]
pEC50 (HIV): 7.30
